Literature values as cited in article PMC3600422 (Journal of molecular biology, 2012).

Columns and labels:
[1] = test system: small cell lung carcinoma; conditions: mouse models
cancer cells = conditions: Mcl-1 or Bfl-1 overexpressed

Binding to Bfl-1 (Bfl-1): do not bind to Mcl-1 or Bfl-1
Binding to Mcl-1 (Mcl-1): do not bind to Mcl-1
Compound: CN(C)CC[C@H](CSc1ccccc1)Nc1ccc(S(=O)(=O)NC(=O)c2ccc(N3CCN(Cc4ccccc4-c4ccc(Cl)cc4)CC3)cc2)cc1[N+](=O)[O-] [ABT-737]
Tumor regression [1]: can regress or eliminate small cell lung carcinoma
Inducing death in cancer cells (cancer cells): ineffective in inducing death in cancer cells when these anti-apoptotic proteins are overexpressed
